The structures appear in SMILES notation. Read-outs that look alike come from different tables or passages of the source.

We go through two compounds from patent publication EP0343367A1, “Mercapto-compounds having mucolytic action and a process for their preparation” (CAMILLO CORVI S.p.A., priority 1988, dated 1989).

In one experiment the test system is rat. The experiment can be described thus: Expectorating activity in the rat (method of K. Kogi et al.). Format: in vivo. The note with it: os, read-out: Expectorating activity in the rat, ED₅₀ os. An excerpt:
(§1) The following table indicates e.g. the bronchial secretion stimulating and mucolytic activity of the compound 10 (R⁴=H, R⁵=OH) as compared to sobrerol.

The test system of another experiment is healthy rabbit. The experiment can be described thus: Production of mucus in the healthy rabbit (method of R. Scuri et al.). The note with it: Oryctolagus cuniculus, administration route: oral. Format: in vivo.
From the text: as §1

The mark [1] stands for this setting: read-out: Production of mucus in the healthy rabbit: No.of animals/increase, ED₅₀.
Setting [2] is: read-out: Production of mucus in the healthy rabbit: Production of mucus, ED₅₀.

As to `CC(C)(O)C1CC=C(CS)C(O)C1` (stereo not drawn) [Compound 10, 2-hydroxy-4-(1-hydroxy-1-methylethyl)-6-cyclohexene-1-methanethiol], the ED50 in the experiment on rat was 100 mg/kg; with healthy rabbit (setting [1]), 400 mg/kg; in the experiment on healthy rabbit (setting [2]) it was 400 mg/kg.
Turning to `CC1=CCC(C(C)(C)O)CC1O` (stereo not drawn) [Sobrerol], the results for the ED50 with rat, in the experiment on healthy rabbit (setting [1]) and with healthy rabbit (setting [2]) were 40 mg/kg, 500 mg/kg and 500 mg/kg, respectively.
